The record followed here is patent US5225607A, “Insecticidal ethers” (Imperial Chemical Industries PLC, priority 1985, dated 1993).

Each structure is given as a SMILES string.

What all share (assay type): in vivo
One assay has as its system Myzus persicae. Kind of assay: Insecticidal test, Myzus persicae (aphids), contact. The settings on record: 72 h, Chinese Cabbage leaf, 3 days, read-out: grading of mortality, MP. The method in brief: (§1)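 Acetone solution diluted in water + 0.01% wetting agent; 500/250/100 ppm. Treat pests and/or host plant/food medium. Read mortality/knockdown day 1–3. Grades: A 80–100% (S. exigua 70–100%), B 50–79% (50–69%), C <50%.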

The test system of another assay is Diabrotica balteata. Kind of assay: Insecticidal test, Diabrotica balteata (rootworm larvae), residual. The conditions noted are these: 72 h, filter paper/maize seed, 3 days, read-out: grading of mortality, DB. The method in brief: as §1
Another assay relates to Tetranychus urticae. Kind of assay: Insecticidal/acaricidal test, Tetranychus urticae (spider mites - adult), contact. The settings on record: 72 h, French bean leaf, 3 days, read-out: grading of mortality, TU. The method in brief:
as §1

Another assay deals with Nilaparvata lugens. Kind of assay: Insecticidal test, Nilaparvata lugens (brown planthopper), contact. The settings on record: 72 h, Cabbage leaf, 3 days, read-out: grading of mortality, NL. The method in brief:
as §1

The subject of another assay is Blattella germanica. Kind of assay: Insecticidal test, Blattella germanica (cockroach nymphs), residual. The conditions noted are these: 72 h, plastic pot, 3 days, read-out: grading of mortality, BG. The method in brief:
as §1

The test system of assay [1] is Musca domestica. Kind of assay: Knockdown test, Musca domestica (houseflies - adults). The settings on record: cotton wool/sugar, 4 hours, read-out: grading of knockdown, MD/KD. The method in brief:
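Adult houseflies were exposed to the compound as aqueous acetone preparations with 0.01% Lissapol NX wetting agent, at 500, 250 or 100 ppm. Knockdown was graded A (80–100%), B (50–79%) or C (<50%).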

The next assay relates to Heliothis virescens. The experiment in a line: whole plant or invertebrate. The settings on record: in Gossypium hirsutum, 72 h, read-out: grading of mortality, HV. The method in brief:
as §1

A further assay deals with Spodoptera exigua. Kind of assay: Insecticidal test, Spodoptera exigua (lesser armyworm), residual. The settings on record: 72 h, cotton leaf, 3 days, read-out: grading of mortality, SE. How it is done: The activity of the Product was determined using a variety of insect and acarine pests. The Product was used in the form of liquid preparations containing 500, 250 or 100 parts per million (ppm) by weight of the Product. The preparations were made by dissolving the Product in acetone and diluting the solutions with water containing 0.01% by weight of a wetting agent sold under the trade name "LISSAPOL" NX until the liquid preparations contained the required concentratio of the Product. "Lissapol" is a Registered Trade Mark.
The test procedure adopted with regard to each pest was basically the same and comprised supporting a number of the pests on a medium which was usually a host plant or a foodstuff on which the pests feed, and treating either or both the pests and the medium with the preparations. The mortality of the pests was then assessed at periods usually varying from one to three days after the treatment.
The results of the tests are given in Table IV for each of the Products, at the rate in parts per million given in the second column as a grading of mortality designated as A, B or C wherein A indicates 80-100% mortality or knockdown (70-100% in the case of Spodoptera exigua), B indicates 50-79% mortality or knockdown (50-69% in the case of Spodoptera exigua) and C indicates less than 50% mortality or knockdown.
In Table IV the pest organism used is designated by a letter code and the pest species, the support medium or food, and the type and duration of test is given in Table III.

The subject of assay [2] is Musca domestica. The experiment in a line: Insecticidal test, Musca domestica (houseflies - adults), contact. The settings on record: 24 h, cotton wool/sugar, 1 day, read-out: grading of mortality, MD. The method in brief: as §1

One may read the mortality as the share of the test organisms that died. `OC(COCc1cccc(Oc2ccccc2)c1)(c1ccc2c(c1)OCO2)C(F)(F)F` (stereo not drawn) [Compound 128, 1,1,1-trifluoro-2-(3,4-methylenedioxyphenyl)-3-(3-phenoxybenzyloxy)propan-2-ol]: the mortality at 500 ppm in the assay with Myzus persicae was under 50%; with Diabrotica balteata it was 50 to 79%; in the assay with Tetranychus urticae it was under 50%; in the assay on Nilaparvata lugens it was under 50%; in the assay with Blattella germanica it was under 50%; with Heliothis virescens it was 80 to 100%. Further, the values for the mortality at 500 ppm with Spodoptera exigua and in the assay on Musca domestica [2] were 70 to 100% and 50 to 79%, respectively. Further, the pest or weed control at 500 ppm in the assay on Musca domestica [1] was under 50%.

Turning to `FC(F)(F)C(Cl)(COCc1cccc(Oc2ccc(Cl)cc2)c1)c1ccc2c(c1)OCO2` (stereo not drawn) [Compound 65, 1,1,1-Trifluoro-2-chloro-2-(3,4-methylenedioxyphenyl)-3-(3-(4-chlorophenoxy)-benzyloxy)propane], the mortality at 500 ppm in the assay on Myzus persicae was under 50%; in the assay on Diabrotica balteata it was under 50%; with Tetranychus urticae, under 50%; in the assay on Nilaparvata lugens, under 50%; in the assay on Blattella germanica it was 80 to 100%; in the assay on Heliothis virescens, 80 to 100%. Besides, the mortality at 500 ppm is 50 to 69% with Spodoptera exigua and under 50% in the assay with Musca domestica [2]. For the same compound, the pest or weed control at 500 ppm in the assay on Musca domestica [1] was under 50%.

Consider `CCOc1c(F)cc(C(COCc2cccc(Oc3ccc(Cl)cc3)c2)C(F)(F)F)cc1F` (racemic) [Compound 165, (RS)-1,1,1-Trifluoro-2-(3,5-difluoro-4-ethoxyphenyl)-3 (3-(4-chlorophenoxy)benzyloxy)propane], for which the mortality at 500 ppm with Myzus persicae, in the assay on Diabrotica balteata, in the assay with Tetranychus urticae, with Nilaparvata lugens, with Blattella germanica and in the assay with Heliothis virescens was 80 to 100% throughout. For the same compound, the mortality at 500 ppm is 70 to 100% in the assay on Spodoptera exigua and 80 to 100% in the assay on Musca domestica [2]. Besides, the pest or weed control at 500 ppm in the assay on Musca domestica [1] lay within 80 to 100%.

Take `CCOc1ccc([C@H](CO[C@@H](C#N)c2cccc(Oc3ccccc3)c2)C(F)(F)F)cc1` (racemic) [Compound 252, (2RS)-1,1,1-trifluoro-2-(4-ethoxyphenyl)-3-[(RS)-α-cyano-3-phenoxybenzyloxy]propane]: the mortality at 500 ppm with Myzus persicae is 80 to 100%; with Diabrotica balteata, 80 to 100%; with Tetranychus urticae, under 50%; in the assay on Nilaparvata lugens it was 80 to 100%; in the assay on Blattella germanica it was 50 to 79%; with Heliothis virescens, 80 to 100%. For the same compound, the mortality at 500 ppm with Spodoptera exigua fell in the range of 70 to 100%; with Musca domestica [2], 80 to 100%. Moreover, in the assay with Musca domestica [1], the pest or weed control at 500 ppm lay in the range of 80 to 100%.

For `OC(COCc1cccc(Oc2ccccc2)c1)(c1ccc(C(F)(F)F)cc1)C(F)(F)F` (stereo not drawn) [Compound 137, 1,1,1-Trifluoro-2-(4-trifluoromethylphenyl)-3-(3-phenoxybenzyloxy)propan-2-ol], the mortality at 500 ppm is 80 to 100% in the assay on Myzus persicae; under 50% with Diabrotica balteata; under 50% with Tetranychus urticae; under 50% with Nilaparvata lugens; under 50% in the assay with Blattella germanica; under 50% in the assay on Heliothis virescens. Besides, the mortality at 500 ppm in the assay on Spodoptera exigua was 70 to 100%; with Musca domestica [2], under 50%. Also, the pest or weed control at 500 ppm in the assay with Musca domestica [1] was under 50%.

Regarding `FC(F)(F)C(COCc1cccc(Oc2ccc(Cl)cc2)c1)c1ccc2c(c1)OCO2` (stereo not drawn) [Compound 32, 1,1,1-Trifluoro-2-(3,4-methylenedioxyphenyl)-3-(3-(4-chlorophenoxy)benzyloxy)propane], the mortality at 500 ppm with Myzus persicae is 50 to 79%; in the assay on Diabrotica balteata, 80 to 100%; in the assay on Tetranychus urticae, under 50%; in the assay on Nilaparvata lugens, 80 to 100%; in the assay on Blattella germanica, 50 to 79%; in the assay with Heliothis virescens it was 80 to 100%. The mortality at 500 ppm in the assay with Spodoptera exigua lay in the range of 70 to 100%; with Musca domestica [2], 80 to 100%. Moreover, the pest or weed control at 500 ppm with Musca domestica [1] fell in the range of 80 to 100%.

Regarding `FC(F)(F)Oc1ccc(C(Cl)(COCc2cccc(Oc3ccccc3)n2)C(F)(F)F)cc1` (stereo not drawn) [Compound 61], the mortality at 100 ppm in the assay with Myzus persicae (100 ppm), with Diabrotica balteata (100 ppm), with Tetranychus urticae (100 ppm), with Nilaparvata lugens (100 ppm), with Blattella germanica (100 ppm) and in the assay with Heliothis virescens was 80 to 100% throughout. The mortality at 100 ppm with Spodoptera exigua (100 ppm) was 70 to 100%; with Musca domestica [2] (100 ppm) it was 80 to 100%. In the assay with Musca domestica [1] (100 ppm), the pest or weed control at 100 ppm was in the range of 80 to 100%.

For the compound `CCOc1ccc(C(COCc2cccc(Cc3ccccc3)c2)C(F)(F)F)cc1` (stereo not drawn) [Compound 12, 1,1,1-Trifluoro-2-(4-ethoxyphenyl)-3-(3-benzylbenzyloxy)propane], the mortality at 500 ppm is 80 to 100% in the assay on Myzus persicae; 80 to 100% in the assay on Diabrotica balteata; under 50% in the assay with Tetranychus urticae; 80 to 100% in the assay on Nilaparvata lugens; 80 to 100% in the assay with Blattella germanica; 80 to 100% in the assay on Heliothis virescens. In addition, the mortality at 500 ppm in the assay with Spodoptera exigua fell in the range of 70 to 100%; with Musca domestica [2], 80 to 100%. Moreover, in the assay with Musca domestica [1], the pest or weed control at 500 ppm fell in the range of 80 to 100%.

With `COCc1ccc(C(COCc2cccc(Oc3ccc(Cl)cc3)c2)C(F)(F)F)cc1` (stereo not drawn) [Compound 23, 1,1,1-Trifluoro-2-(4-methoxymethylphenyl)-3-(3-(4-chlorophenoxy)benzyloxy)propane], the mortality at 500 ppm is 50 to 79% with Myzus persicae; 80 to 100% in the assay with Diabrotica balteata; under 50% with Tetranychus urticae; 80 to 100% in the assay with Nilaparvata lugens; under 50% in the assay on Blattella germanica; under 50% with Heliothis virescens. Moreover, the results for the mortality at 500 ppm with Spodoptera exigua and in the assay with Musca domestica [2] were 70 to 100% and 50 to 79%, respectively. Moreover, the pest or weed control at 500 ppm with Musca domestica [1] fell in the range of 80 to 100%.

Regarding `CCOc1ccc(C(COCc2cccc(Oc3ccc(F)cc3F)c2)C(F)(F)F)cc1` (stereo not drawn) [Compound 10, 1,1,1-Trifluoro-2-(4-ethoxyphenyl)-3-(3-(2,4-difluorophenoxy)benzyloxy)propane], the mortality at 250 ppm is 50 to 79% with Myzus persicae; 80 to 100% in the assay with Diabrotica balteata; under 50% with Tetranychus urticae; 80 to 100% with Nilaparvata lugens; 80 to 100% in the assay with Blattella germanica; 80 to 100% in the assay on Heliothis virescens. Further, the results for the mortality at 250 ppm in the assay with Spodoptera exigua and with Musca domestica [2] were 70 to 100% and 80 to 100%, respectively. For the same compound, in the assay on Musca domestica [1], the pest or weed control at 250 ppm fell in the range of 80 to 100%.

On to `OC(COCc1cccc(Oc2ccc(Cl)cc2)c1)(c1ccc(OC(F)(F)F)cc1)C(F)(F)F` (stereo not drawn) [Compound 135, 1,1,1-Trifluoro-2-(4-trifluoromethoxyphenyl)-3-(3-(4-chlorophenoxy)benzyloxy)propan-2-ol], for which the mortality at 250 ppm is under 50% in the assay on Myzus persicae; under 50% with Diabrotica balteata; under 50% in the assay with Tetranychus urticae; under 50% in the assay on Nilaparvata lugens; under 50% in the assay with Blattella germanica; 80 to 100% in the assay with Heliothis virescens. The mortality at 250 ppm in the assay on Spodoptera exigua was 70 to 100%; in the assay with Musca domestica [2], under 50%. The pest or weed control at 250 ppm with Musca domestica [1] was 80 to 100%.
